We go through two compounds from patent US9981912B2, “Cocrystal of lorcaserin, preparation methods, pharmaceutical compositions and uses thereof” (priority 2014, dated 2018).

Structures can show the parent of a compound that is named as a salt. Some results are limits rather than exact numbers.

For series [1] the following is noted: disclosed in WO2006/069363A2; cited from earlier work.
Series [2] is described as follows: Solubility in pure water at 25° C. (Test Example 1).
The nature of series [3]: Storage stability at 25° C., 60% RH for 6 months. The format is physicochemical.

Regarding `C[C@H]1CNCCc2ccc(Cl)cc21` [lorcaserin hydrochloride hemihydrate, (R)-8-chloro-1-methyl-2,3,4,5-tetrahydro-1H-3-benzazepine], in series [1], the hygroscopicity result is on record as “poor hygroscopicity”; the “stability among crystalline Forms I, II and III” value is given as “the most stable form”. Besides, the solubility – broadly, how much of the substance goes into solution per volume – in series [2] (in water, 25° C., listed as Lorcaserin hydrochloride hemihydrate (the known)) is over 200 mg/mL. For the same compound, the solubility in series [2] (pure water, 25 °C, water, thermodynamic from solid) is over 200 mg/mL.
For “cocrystal of lorcaserin hydrochloride and benzoic acid [the cocrystal]”, in series [3], the “purity and crystalline form after storage” value is “unchanged”.
